Source: article PMC5947527 (Chemical Science, 2015)
Entries after “also recorded” stand apart in the source; their conditions may differ. Non-standard residues stand in square brackets, D forms with d. Residues, ends and D or L forms follow the SMILES beside them. *: point of attachment. NBD = O=[N+]([O-])c1ccc(*)c2nonc12; Nle = CCCC[C@H](N)C(=O)O; Ahx = NCCCCCC(=O)O

Experiments:
Type in all cases: cell-based
[1] = test system: Methicillin sensitive S. aureus, K. pneumoniae and P. aeruginosa; experiment: Bacterial affinity: fluorescence retention following a PBS wash (confocal); conditions: 10 µM, two gentle PBS washes, three bacterial species, n=3
Description: Three compounds (UBI-3, UBI-5 and UBI-10) were assessed for further evaluation. […] In vitro affinity of bacterial binding was assessed by incorporating a wash step in the live confocal imaging protocol with a panel of bacteria with the ‘wash-off’ representing a surrogate indicator of Smartprobe-bacterial labelling affinity. […] UBI-10, therefore, was assessed further in a clinically relevant biological system.
Figure S4. Quantified fluorescence of confocal microscopy images of the compounds UBI-3, UBI-5 and UBI-10 on three bacteria and fluorescence retention following a PBS wash. Quantification of fluorescence intensity of (A) Methicillin sensitive S. aureus, (B) K. pneumoniae and (C) and P. […]
intensity following a PBS wash. […]
(§1) Confocal Analysis and Fluorescence Quantification: 8-Well Lab-Tek II Confocal Chambers (VWR, PA, USA) were coated in fibronectin (for neutrophil experiments) or poly-d-lysine (for bacteria) at 37 °C for 20 minutes, then washed in PBS prior to bacterial innoculation. For co-culture assays, neutrophils were seeded on fibronectin coated wells at 1 x 10^5 neutrophils per well for 20 minutes and non-adherent neutrophils aspirated. Bacteria were added to each chamber to a final concentration of 0.5 OD595 nm with the desired final concentration of Smartprobe. A laser-scanning confocal imaging system (LSM510; Carl Zeiss, Jena, Germany), incorporating an upright Axioskop FS2 microscope (63× objective) was used for image acquisition and processing. Exposure to 488 nm light was limited to 5% of the maximum laser power in order to minimize toxicity. ‘Green’ fluorescence (for FAM and NBD) was excited with a dedicated 488 nm line and emitted light detected with meta detector (500-530 nM).
(§2) Syto nuclear and dyes were excited with a dedicated 543 nm line, and emitted light detected with meta detector (570-610 nM). Fields of view were chosen based on the counterstain and at least three fields of view were recorded for each condition. For affinity assays, following initial imaging, the fluid was aspirated and two gentle washes with PBS were performed. The chamber was re-imaged on confocal.
Analysis was with ImageJ (version 1.46r, National Institutes of Health, USA); the Syto channel was automatically thresholded (MaxEntropy, with a set threshold 0-47) and an ROI generated from this. The […]
mean fluorescence intensity on the probe channel within this ROI was quantified. Data presented represents the mean of three experiments, from each of which three separate fields of view were assessed. All experiments were performed at least three times unless otherwise stated and results expressed as mean ± SEM. Data was analysed by unpaired t-test and significance was determined as p<0.05 (GraphPad Prism version 5.01 for Windows, GraphPad Software, San Diego California USA).
Ex vivo Human Lung and FCFM Procedure: Human lung samples were obtained from patients undergoing surgical resection for lung carcinoma. All images were obtained on sections of normal lung away from the cancerous growth. Informed consent was obtained and the study was approved by the Regional Ethics Committee. Samples were taken fresh from the operating theatre, dissected into 4mm sections and placed in wells of 96 well plate. Bacteria were pre-labelled with Smartprobe or Calcein AM and co-cultured in the well with a maximum volume of 100µl. […]

[2] = test system: P. aeruginosa; experiment: Confocal labelling of bacteria in the presence of human ARDS BALF; conditions: 10 μM, n = 3 PBS, n = 5 ARDS, p < 0.001
Description: To determine the ability of UBI-3 to image bacteria in the continued presence of a complex inflammatory environment, bacteria were labelled with UBI-3 in the presence of broncho-alveolar lavage fluid (BALF) retrieved from ventilated ICU patients with Acute Respiratory Distress Syndrome (ARDS). ARDS BALF was utilised as ARDS is a severe life threatening pulmonary syndrome, characterized by a massive proteolytic and oxidative inflammatory environment within the distal alveolar region.[14] […] To design out susceptible amino acid cleavage points, a number of modifications were made (Table 1) and the functional consequences assessed. […]
Confocal Analysis and Fluorescence Quantification: 8-Well Lab-Tek II Confocal Chambers (VWR, PA, USA) were coated in fibronectin (for neutrophil experiments) or poly-d-lysine (for bacteria) at 37 °C for 20 minutes, then washed in PBS prior to bacterial innoculation. […] Exposure to 488 nm light was limited to 5% of the maximum laser power in order to minimize toxicity. ‘Green’ fluorescence (for FAM and NBD) was excited with a dedicated 488 nm line and emitted light detected with meta detector (500-530 nM).
Syto nuclear and dyes were excited with a dedicated 543 nm line, and emitted light detected with meta detector (570-610 nM). Fields of view were chosen based on the counterstain and at least three fields of view were recorded for each condition. […]

[3] = test system: isolated human neutrophils; experiment: Co-culture of bacteria and isolated human neutrophils, confocal specificity
Description: Neutrophil Isolation: Neutrophils for in vitro experiments were isolated from peripheral venous blood of healthy human volunteers (Ethical approval was obtained from the Lothian Research Ethics Committee). Blood was anticoagulated with sodium citrate (0.38% final concentration) and polymorphonuclear leukocytes were isolated via dextran sedimentation followed by centrifugation through discontinuous plasma-Percoll gradients, as previously described. S4 […]
as §1, §2
Analysis was with ImageJ (version 1.46r, National Institutes of Health, USA); the Syto channel was automatically thresholded (MaxEntropy, with a set threshold 0-47) and an ROI generated from this. The

SMILES	fluorescence following labelling and a PBS wash [1]	fluorescent labelling intensity of bacteria in ARDS BALF compared to PBS [2]	labelling of neutrophils vs bacteria ([3]; bacteria with isolated human neutrophils, confocal)	labelling of neutrophils at 10 μM ([3]; co-culture of isolated human neutrophils and methicillin sensitive S. aureus, 10 μM)	labelling of neutrophils at 50 μM ([3]; co-culture of isolated human neutrophils and methicillin sensitive S. aureus, 50 μM)
CCCC[C@H](NC(=O)[C@H](CCCNC(=N)N)NC(=O)[C@H](CCCNC(=N)N)NC(=O)[C@H](CCCCN)NC(=O)[C@H](C)NC(=O)[C@H](CCCNC(=N)N)NC(=O)CNC(=O)[C@@H](NC(=O)CCCCCNc1ccc([N+](=O)[O-])c2nonc12)[C@@H](C)O)C(=O)N[C@@H](CCC(N)=O)C(=O)N[C@@H](Cc1ccc(O)cc1)C(=O)N[C@@H](CC(N)=O)C(=O)N[C@@H](CCCNC(=N)N)C(=O)N[C@@H](CCCNC(=N)N)C(N)=O [UBI-3] ({NBD-Ahx}-TGRAKRR[Nle]QYNRR-NH2)	significantly lower fluorescence	significant reduction in the fluorescent labelling intensity; also recorded: significantly reduced intensity when compared to PBS	labels bacteria but not isolated human neutrophils	–	–
CCCC[C@@H]1NC(=O)[C@H](CCCNC(=N)N)NC(=O)[C@H](CCCNC(=N)N)NC(=O)[C@H](CCCCN)NC(=O)[C@H](C)NC(=O)[C@H](CCCNC(=N)N)NC(=O)CNC(=O)[C@H]([C@@H](C)O)NC(=O)[C@@H](NC(=O)CCCCCNc2ccc([N+](=O)[O-])c3nonc23)CCCCNC(=O)CNC(=O)[C@H](CCCNC(=N)N)NC(=O)[C@H](CCCNC(=N)N)NC(=O)[C@H](CC(N)=O)NC(=O)[C@H](Cc2ccc(O)cc2)NC(=O)[C@H](CCC(N)=O)NC1=O [UBI-10]	retains a significant fluorescence intensity	–	–	retained bacterial specificity over neutrophils; also recorded: no labelling of neutrophils	some neutrophil labelling was observed; also recorded: occasional neutrophil labelling was observed
